Measurements published in patent publication US12139520B2 (priority 2020, dated 2024).
pEC50: −log10 of the molar value. Bridge positions count the residues as written; N and C are the ends. Square brackets hold non-standard residues; d marks the D form. Peptide text beside a SMILES is read from it. Hyp = O=C(O)[C@@H]1C[C@@H](O)CN1; Cit = NC(=O)NCCC[C@H](N)C(=O)O

Columns and labels:
hAMY3 receptor = biological target: T1, hAMY3 receptor (Homo sapiens, UniProt O60896+P30988); assay: cAMP assay for in vitro receptor activation, hAMY3-R; format: cell-based; settings: cAMP assay, hAMY3 receptor; read-out: hAMY3R EC50
T1 sequence (P30988 25-474): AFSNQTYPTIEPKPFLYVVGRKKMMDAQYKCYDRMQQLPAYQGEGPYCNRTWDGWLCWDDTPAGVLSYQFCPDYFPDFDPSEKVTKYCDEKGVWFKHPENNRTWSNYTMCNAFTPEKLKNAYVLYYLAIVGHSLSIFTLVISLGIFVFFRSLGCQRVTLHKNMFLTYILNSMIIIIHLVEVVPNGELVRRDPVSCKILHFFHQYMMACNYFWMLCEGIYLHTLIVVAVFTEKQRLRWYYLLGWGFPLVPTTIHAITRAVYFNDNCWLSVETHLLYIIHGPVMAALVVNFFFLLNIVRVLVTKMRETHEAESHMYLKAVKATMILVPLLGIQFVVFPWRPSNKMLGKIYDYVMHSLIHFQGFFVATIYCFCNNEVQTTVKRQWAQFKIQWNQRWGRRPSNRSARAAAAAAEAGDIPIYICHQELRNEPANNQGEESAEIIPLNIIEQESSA
T1 sequence (O60896 24-148 partner): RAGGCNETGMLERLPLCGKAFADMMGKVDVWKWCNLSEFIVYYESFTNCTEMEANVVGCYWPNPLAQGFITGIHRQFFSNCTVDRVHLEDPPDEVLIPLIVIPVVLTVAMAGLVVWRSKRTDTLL
Method in brief: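 Read-out is TR-FRET cAMP signal, recorded one hour after reagent addition, following 30 min room-temperature stimulation of stable hAMY3 cells with graded compound doses in casein/IBMX (0.5 mM) buffer.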

[1] = Physical stability of peptide analogues (Thioflavin T fibrillation); format: physicochemical; settings: maximum ThT signal normalized between hAMY maximum and buffer background; 40° C., shaking, four days; pH 7 per table title
Method in brief: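 Samples are stressed at 40 °C for four days, being shaken at 700 rpm before each 10-min fluorescence reading of 4 μM Thioflavin T. Buffers were pH 4 acetate or pH 7 phosphate. Reported values are smoothed maximum ThT signals as a percentage of the hAMY-to-background range.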

CC[C@H](C)[C@H](NC(=O)[C@H](CCC(N)=O)NC(=O)[C@H](Cc1c[nH]cn1)NC(=O)[C@H](C)NC(=O)[C@H](CC(C)C)NC(=O)[C@H](CCCNC(=N)N)NC(=O)[C@H](CCC(N)=O)NC(=O)[C@@H](NC(=O)[C@@H](NC(=O)[C@@H]1CSSC[C@H](NC(=O)[C@@H](N)CCCCN)C(=O)N[C@@H](CCCNC(=N)N)C(=O)N[C@@H](CCSC)C(=O)NCC(=O)N[C@@H]([C@@H](C)O)C(=O)N1)[C@@H](C)O)C(C)C)C(=O)N[C@@H](Cc1ccc(O)cc1)C(=O)N[C@@H](CCC(N)=O)C(=O)N[C@@H](Cc1ccccc1)C(=O)N[C@H](C(=O)N[C@@H](CC(=O)O)C(=O)N[C@@H](CCCCN)C(=O)N[C@@H](CC(=O)O)C(=O)N[C@@H](CCCCN)C(=O)N[C@@H](CC(=O)O)C(=O)N[C@@H](CC(N)=O)C(=O)N[C@H](C(=O)N[C@@H](C)C(=O)N1CCC[C@H]1C(=O)N[C@@H](CCCNC(=N)N)C(=O)N[C@@H](CO)C(=O)N[C@@H](CCCCN)C(=O)N[C@H](C(=O)N[C@@H](CO)C(=O)N1CCC[C@H]1C(=O)N[C@@H](CCC(N)=O)C(=O)N[C@H](C(=O)N1C[C@H](O)C[C@H]1C(N)=O)[C@@H](C)O)[C@@H](C)CC)C(C)C)[C@@H](C)O [compound 194] (H-KCRMGTCTVQRLAHQIYQFTDKDKDNVAPRSKISPQT[Hyp]-NH2; disulfide 2-7; N-terminus assumed)
pEC50 (hAMY3 receptor): 9.95
Max ThT signal (%) [1]: 6.000%

CC[C@H](C)[C@H](NC(=O)[C@H](CCC(N)=O)NC(=O)[C@H](Cc1c[nH]cn1)NC(=O)[C@H](C)NC(=O)[C@H](CC(C)C)NC(=O)[C@H](CCCNC(=N)N)NC(=O)[C@H](CCC(N)=O)NC(=O)[C@@H](NC(=O)[C@@H](NC(=O)[C@@H]1CSSC[C@H](NC(=O)CN)C(=O)N[C@@H](CCCNC(=N)N)C(=O)N[C@@H]([C@@H](C)O)C(=O)NCC(=O)N[C@@H]([C@@H](C)O)C(=O)N1)[C@@H](C)O)C(C)C)C(=O)N[C@@H](Cc1ccc(O)cc1)C(=O)N[C@@H](CCC(N)=O)C(=O)N[C@@H](Cc1ccccc1)C(=O)N[C@H](C(=O)N[C@@H](CC(=O)O)C(=O)N[C@@H](CCCCN)C(=O)N[C@@H](Cc1ccccc1)C(=O)N[C@@H](CCCCN)C(=O)N[C@@H](CC(=O)O)C(=O)N[C@@H](CC(N)=O)C(=O)N[C@H](C(=O)N[C@@H](C)C(=O)N1CCC[C@H]1C(=O)N[C@@H](CCCNC(=N)N)C(=O)N[C@@H](CO)C(=O)N[C@@H](CCCCN)C(=O)N[C@H](C(=O)N[C@@H](CO)C(=O)N1CCC[C@H]1C(=O)N[C@@H](CCC(N)=O)C(=O)N[C@@H](Cc1c[nH]cn1)C(=O)N1C[C@H](O)C[C@H]1C(N)=O)[C@@H](C)CC)C(C)C)[C@@H](C)O [compound 201] (H-GCRTGTCTVQRLAHQIYQFTDKFKDNVAPRSKISPQH[Hyp]-NH2; disulfide 2-7; N-terminus assumed)
pEC50 (hAMY3 receptor): 9.90
Max ThT signal (%) [1]: 1.000%

CC[C@H](C)[C@H](NC(=O)[C@H](CCC(N)=O)NC(=O)[C@H](Cc1c[nH]cn1)NC(=O)[C@H](C)NC(=O)[C@H](CC(C)C)NC(=O)[C@H](CCCNC(=N)N)NC(=O)[C@H](CCC(N)=O)NC(=O)[C@@H](NC(=O)[C@@H](NC(=O)[C@@H]1CSSC[C@H](NC(=O)[C@@H](N)CCCCN)C(=O)N[C@@H](CCCNC(=N)N)C(=O)N[C@@H](Cc2ccccc2)C(=O)NCC(=O)N[C@@H]([C@@H](C)O)C(=O)N1)[C@@H](C)O)C(C)C)C(=O)N[C@@H](Cc1ccc(O)cc1)C(=O)N[C@@H](CCC(N)=O)C(=O)N[C@@H](Cc1ccccc1)C(=O)N[C@H](C(=O)N[C@@H](CC(=O)O)C(=O)N[C@@H](CCCCN)C(=O)N[C@@H](CC(=O)O)C(=O)N[C@@H](CCCCN)C(=O)N[C@@H](CC(=O)O)C(=O)N[C@@H](CC(N)=O)C(=O)N[C@H](C(=O)N[C@@H](C)C(=O)N1CCC[C@H]1C(=O)N[C@@H](CCCNC(=N)N)C(=O)N[C@@H](CO)C(=O)N[C@@H](CCCCN)C(=O)N[C@H](C(=O)N[C@@H](CO)C(=O)N1CCC[C@H]1C(=O)N[C@@H](CCC(N)=O)C(=O)N[C@H](C(=O)N1C[C@H](O)C[C@H]1C(N)=O)[C@@H](C)O)[C@@H](C)CC)C(C)C)[C@@H](C)O [compound 205] (H-KCRFGTCTVQRLAHQIYQFTDKDKDNVAPRSKISPQT[Hyp]-NH2; disulfide 2-7; N-terminus assumed)
pEC50 (hAMY3 receptor): 9.89
Max ThT signal (%) [1]: 7.800%

CC[C@H](C)[C@H](NC(=O)[C@H](CCC(N)=O)NC(=O)[C@H](Cc1c[nH]cn1)NC(=O)[C@H](C)NC(=O)[C@H](CC(C)C)NC(=O)[C@H](CCCNC(=N)N)NC(=O)[C@H](CCC(N)=O)NC(=O)[C@@H](NC(=O)[C@@H](NC(=O)[C@@H]1CSSC[C@H](NC(=O)CN)C(=O)N[C@@H](CCCNC(=N)N)C(=O)N[C@@H]([C@@H](C)O)C(=O)NCC(=O)N[C@@H]([C@@H](C)O)C(=O)N1)[C@@H](C)O)C(C)C)C(=O)N[C@@H](Cc1ccc(O)cc1)C(=O)N[C@@H](CCC(N)=O)C(=O)N[C@@H](Cc1ccccc1)C(=O)N[C@H](C(=O)N[C@@H](CC(=O)O)C(=O)N[C@@H](CCCCN)C(=O)N[C@@H](CC(=O)O)C(=O)N[C@@H](CCCCN)C(=O)N[C@@H](CC(=O)O)C(=O)N[C@@H](CC(N)=O)C(=O)N[C@H](C(=O)N[C@@H](C)C(=O)N1CCC[C@H]1C(=O)N[C@@H](CCCNC(=N)N)C(=O)N[C@H](C(=O)N[C@@H](CC(N)=O)C(=O)N[C@H](C(=O)N[C@@H](CO)C(=O)N1CCC[C@H]1C(=O)N[C@@H](CCC(N)=O)C(=O)NCC(=O)N1C[C@H](O)C[C@H]1C(N)=O)[C@@H](C)CC)[C@@H](C)O)C(C)C)[C@@H](C)O [compound 214] (H-GCRTGTCTVQRLAHQIYQFTDKDKDNVAPRTNISPQG[Hyp]-NH2; disulfide 2-7; N-terminus assumed)
pEC50 (hAMY3 receptor): 9.80
Max ThT signal (%) [1]: 2.700%

CC[C@H](C)[C@H](NC(=O)[C@H](CCC(N)=O)NC(=O)[C@H](Cc1c[nH]cn1)NC(=O)[C@H](C)NC(=O)[C@H](CC(C)C)NC(=O)[C@H](CCCNC(=N)N)NC(=O)[C@H](CCC(N)=O)NC(=O)[C@@H](NC(=O)[C@@H](NC(=O)[C@@H]1CSSC[C@H](NC(=O)CN)C(=O)N[C@@H](CCCNC(=N)N)C(=O)N[C@@H]([C@@H](C)O)C(=O)NCC(=O)N[C@@H]([C@@H](C)O)C(=O)N1)[C@@H](C)O)C(C)C)C(=O)N[C@@H](Cc1ccc(O)cc1)C(=O)N[C@@H](CCC(N)=O)C(=O)N[C@@H](Cc1ccccc1)C(=O)N[C@H](C(=O)N[C@@H](CC(=O)O)C(=O)N[C@@H](CCCCN)C(=O)N[C@@H](CC(=O)O)C(=O)N[C@@H](CCCCN)C(=O)N[C@@H](CC(=O)O)C(=O)N[C@@H](CC(N)=O)C(=O)N[C@H](C(=O)N[C@@H](C)C(=O)N1CCC[C@H]1C(=O)N[C@@H](CCCNC(=N)N)C(=O)N[C@@H](CO)C(=O)N[C@@H](CC(N)=O)C(=O)N[C@H](C(=O)N[C@@H](CO)C(=O)N1CCC[C@H]1C(=O)N[C@@H](CCC(N)=O)C(=O)NCC(=O)N1C[C@H](O)C[C@H]1C(N)=O)C(C)C)C(C)C)[C@@H](C)O [compound 224] (H-GCRTGTCTVQRLAHQIYQFTDKDKDNVAPRSNVSPQG[Hyp]-NH2; disulfide 2-7; N-terminus assumed)
pEC50 (hAMY3 receptor): 9.73
Max ThT signal (%) [1]: 2.000%

CC[C@H](C)[C@H](NC(=O)[C@H](CCC(N)=O)NC(=O)[C@H](C)NC(=O)[C@H](C)NC(=O)[C@H](CC(C)C)NC(=O)[C@H](CCCNC(N)=O)NC(=O)[C@H](CCC(N)=O)NC(=O)[C@@H](NC(=O)[C@@H](NC(=O)[C@@H]1CSSC[C@H](NC(=O)[C@@H](N)CCCCN)C(=O)N[C@@H](CC(N)=O)C(=O)N[C@@H]([C@@H](C)O)C(=O)N[C@@H](C)C(=O)N[C@@H]([C@@H](C)O)C(=O)N1)[C@@H](C)O)C(C)C)C(=O)N[C@@H](Cc1ccc(O)cc1)C(=O)N[C@@H](CCC(N)=O)C(=O)N[C@@H](Cc1ccccc1)C(=O)N[C@H](C(=O)N[C@@H](CC(=O)O)C(=O)N[C@@H](CCCCN)C(=O)N[C@@H](CC(=O)O)C(=O)N[C@@H](CCCCN)C(=O)N[C@@H](CC(=O)O)C(=O)N[C@@H](CC(N)=O)C(=O)N[C@H](C(=O)N[C@@H](C)C(=O)N1CCC[C@H]1C(=O)N1CCC[C@H]1C(=O)N[C@H](C(=O)N[C@@H](CC(N)=O)C(=O)N[C@H](C(=O)NCC(=O)N[C@@H](CO)C(=O)N[C@@H](CC(N)=O)C(=O)NCC(=O)N1C[C@H](O)C[C@H]1C(N)=O)C(C)C)[C@@H](C)O)C(C)C)[C@@H](C)O [compound 243] (H-KCNTATCTVQ[Cit]LAAQIYQFTDKDKDNVAPPTNVGSNG[Hyp]-NH2; disulfide 2-7; N-terminus assumed)
pEC50 (hAMY3 receptor): 10.74
Max ThT signal (%) [1]: 8.550%
